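Following 48 hours of exposure in 96-well plates, responses at five concentrations were used to interpolate endpoints linearly. Here, GI50 denotes the concentration required for 50% inhibition of growth.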 Activity calls are given as the source filed them. Cut-off read from the data, not from the text of the source: active = GI50 up to about 1.1 µM and inactive = higher.
Assays:
Test in all cases: NCI anticancer screen, dose series, 48 h
DLD-1 = test system: DLD-1
DMS-114 = test system: DMS-114
DMS-273 = test system: DMS-273
HOP-18 = test system: HOP-18
KM-20L2 = test system: KM-20L2
M19-MEL = test system: M19-MEL
RXF 631 = test system: RXF 631
SNB-78 = test system: SNB-78
XF498 = test system: XF498

SMILES	GI50 (DLD-1)	GI50 (DMS-114)	GI50 (DMS-273)	GI50 (HOP-18)	GI50 (KM-20L2)	GI50 (M19-MEL)	GI50 (RXF 631)	GI50 (SNB-78)	GI50 (XF498)
O=C1c2ccccc2C(=O)c2c1ccc1conc21	2.55 µM (inactive)	1.83 µM (inactive)	3.44 µM (inactive)	13.4 µM (inactive)	15.4 µM (inactive)	1.32 µM (inactive)	2.85 µM (inactive)	2.84 µM (inactive)	
COc1cc(Cl)cc(O)c(=O)c1OC	37.3 µM (inactive)	24 µM (inactive)	32.2 µM (inactive)	71.6 µM (inactive)	37.9 µM (inactive)	45.8 µM (inactive)		16.9 µM (inactive)	> 59.8 µM (inactive)
COC(=O)C1CC(c2ccc(Cl)cc2)=NO1 (centres undefined)	> 100 µM (inactive)	> 100 µM (inactive)	> 100 µM (inactive)	> 100 µM (inactive)	> 100 µM (inactive)	> 100 µM (inactive)		> 100 µM (inactive)	
C1=CC=C2NCCCCCCC/N=C3/C=CC=CC=C3NCCCCCCC/N=C\2C=C1	49.4 µM (inactive)		19.1 µM (inactive)		30.5 µM (inactive)	> 100 µM (inactive)	13 µM (inactive)		> 100 µM (inactive)
Cc1cc(C)nc(NS(=O)(=O)c2ccc(Nc3c4ccc(Cl)cc4nc4c(C(=O)NCCN(C)C)cccc34)cc2)n1	> 100 µM (inactive)	> 100 µM (inactive)	> 100 µM (inactive)		> 100 µM (inactive)	> 100 µM (inactive)	> 100 µM (inactive)	> 100 µM (inactive)	> 100 µM (inactive)
NCCCCCS(=O)(=O)O	> 100 µM (inactive)	> 100 µM (inactive)	> 100 µM (inactive)	> 100 µM (inactive)	> 100 µM (inactive)	> 100 µM (inactive)	> 100 µM (inactive)	> 100 µM (inactive)	
COc1ccc(/C=C/c2onc3c(=O)n(C)nc(-c4ccccc4)c23)cc1	> 100 µM (inactive)	> 100 µM (inactive)	> 100 µM (inactive)	> 100 µM (inactive)	> 100 µM (inactive)	> 100 µM (inactive)			37 µM (inactive)
Cc1ccc(C2CC(c3ccco3)=NN2c2ccccc2)o1 (centres undefined)		> 100 µM (inactive)	> 100 µM (inactive)		> 100 µM (inactive)	> 100 µM (inactive)		> 100 µM (inactive)	> 100 µM (inactive)
CCCCN(CCCC)C(=O)C(=O)C(C(=O)C(=O)OC)c1nc2ccccc2o1 (centres undefined)	53.8 µM (inactive)	54 µM (inactive)	> 100 µM (inactive)	> 100 µM (inactive)		> 100 µM (inactive)	79.3 µM (inactive)	> 100 µM (inactive)	64.3 µM (inactive)
O=C1C2c3[nH]c4ccccc4c3C3CCCCCC3C2C(=O)N1c1ccccc1 (centres undefined)	58.2 µM (inactive)	> 49.9 µM (inactive)	37.8 µM (inactive)	19.5 µM (inactive)	> 100 µM (inactive)	> 58.1 µM (inactive)		11.7 µM (inactive)	22.9 µM (inactive)
COCc1c(CO)cnc(C)c1OC1OC(CO)C(O)C(O)C1O (centres undefined)	> 100 µM (inactive)	> 100 µM (inactive)	> 100 µM (inactive)		> 100 µM (inactive)	> 100 µM (inactive)			> 100 µM (inactive)
Cn1c2ccccc2c(=O)c2c([N+](=O)[O-])ccc(NCCN)c21		11.5 µM (inactive)	3.86 µM (inactive)	13.3 µM (inactive)	10.1 µM (inactive)	13 µM (inactive)		14.5 µM (inactive)	15.1 µM (inactive)
CCCNCC(=O)O[C@]1(CC)C(=O)OCc2c1cc1n(c2=O)Cc2cc3ccccc3nc2-1	2.07 µM (inactive)	0.0187 µM (active)	< 0.01 µM (active)	0.123 µM (active)	0.416 µM (active)	0.194 µM (active)			< 0.01 µM (active)
CSC(=S)N(C)c1nc(N(C)C)s[s+]1	> 100 µM (inactive)	> 100 µM (inactive)	> 100 µM (inactive)	> 100 µM (inactive)	> 100 µM (inactive)	> 100 µM (inactive)		> 100 µM (inactive)	> 100 µM (inactive)
O=C(O)CSc1nnc(/C=C/c2ccccc2)[nH]1	> 100 µM (inactive)	> 64.3 µM (inactive)	> 100 µM (inactive)	> 92.7 µM (inactive)	> 100 µM (inactive)	> 100 µM (inactive)		> 100 µM (inactive)	> 100 µM (inactive)
O=C1/C(=C/c2ccc(C(=O)O)cc2)CNC/C1=C\c1ccc(C(=O)O)cc1	> 100 µM (inactive)	> 100 µM (inactive)	> 100 µM (inactive)	> 100 µM (inactive)	> 100 µM (inactive)	> 100 µM (inactive)	> 100 µM (inactive)	> 100 µM (inactive)	> 100 µM (inactive)
C=C1CC(OC)(C(OC)C(=O)N(C)[C@H]2OCO[C@H]3C2O[C@H](C[C@@H](COC)OC)C(C)(C)C3OC)O[C@H](C)[C@@H]1C (some centres undefined)	18.3 µM (inactive)	11.2 µM (inactive)	6.9 µM (inactive)	25.5 µM (inactive)	13.3 µM (inactive)			12.2 µM (inactive)	7.91 µM (inactive)
COC1=CC(=O)C2C(C1=O)C(c1ccc(OC)c(OC)c1)[C@H]2C (some centres undefined)	17.1 µM (inactive)	19.5 µM (inactive)	23.7 µM (inactive)	20.7 µM (inactive)	68.9 µM (inactive)	20.8 µM (inactive)	16.4 µM (inactive)	> 100 µM (inactive)	16.2 µM (inactive)
CCCCCCCCCCCC[N+]12CC[N+](CCN)(CC1)CC2	82.8 µM (inactive)	34.1 µM (inactive)	14.8 µM (inactive)	75.3 µM (inactive)	62.4 µM (inactive)	> 100 µM (inactive)	> 100 µM (inactive)	77.8 µM (inactive)	> 100 µM (inactive)
CN1CCC(c2c(O)cc(O)c3c(=O)cc(-c4ccccc4Cl)oc23)C(O)C1 (centres undefined)	0.0368 µM (active)		0.0335 µM (active)	0.102 µM (active)	0.217 µM (active)			0.118 µM (active)	0.0492 µM (active)
CCOc1ccc(/C=C/c2cc(OC)c(OC)c(OC)c2)cc1	1.9 µM (inactive)	1.36 µM (inactive)	0.548 µM (active)	> 75.2 µM (inactive)	0.82 µM (active)	3.03 µM (inactive)	0.879 µM (active)	0.341 µM (active)	4.4 µM (inactive)
